# Legend:
# P0 mouse TG neurons = experiment: Ratiometric calcium imaging, P0 mouse TG neurons; format: cell-based; settings: ICA-121431 500 nM, SGTx1 500 nM; P0 mouse neurons (Extended Data Fig. 1d)
# [1] = tested on: high-threshold colonic afferents from healthy mice; experiment: Ex vivo gut-nerve recording, high-threshold colonic afferents, healthy mice; design: species or system mouse; settings: ICA-121432 with or without Hm1a (100 nM), afferents/total
# [2] = tested on: high-threshold colonic afferents from CVH mice; experiment: Ex vivo gut-nerve recording, high-threshold colonic afferents, CVH mice; design: species or system mouse
# [3] = tested on: nerve-injury evoked mechanical allodynia; settings: cited from earlier work
# [4] = tested on: mouse paw mechanical response threshold; experiment: Von Frey test, mechanical sensitivity; format: in vivo; settings: native Hm1b 500 nM intraplantar, n = 5
compound,measurement,setting,value
O=C(Nc1ccc(S(=O)(=O)Nc2nccs2)cc1)C(c1ccccc1)c1ccccc1 [ICA-121431],block of SGTx1-evoked calcium responses,P0 mouse TG neurons,only partially blocked
same,afferents unaltered by ICA,[1],5/10
same,sensitizing effects of Hm1a,[2]; ICA-121431 with Hm1a,blocked the sensitizing effects of Hm1a
same,afferents unaltered by ICA,"[2]; ICA-121432 with or without Hm1a, afferents/total",3/10
NC(=O)c1cn(Cc2c(F)cccc2F)nn1 [rufinamide],effect on nerve-injury evoked mechanical allodynia,[3],diminish nerve-injury evoked mechanical allodynia
Hm1b: inhibitor cysteine knot (ICK) peptide from venom of the tarantula Heteroscodra maculata,mechanical sensitization compared with Hm1a,[4],Equivalent mechanical sensitization

# Source: publication PMC4919188 (Nature, 2016)
